In assay [1] the test system is SNU16 cells. Nature of the assay: Cell viability (CellTiter-Glo). The assay is classed as cell-based, human. To be noted: Extended Data Fig. 8; read-out: IC50 SNU16. The method, then: Cell viability assay was performed using CellTiter-Glo (Promega, catalgoue no. G8461) as previously described. Briefly, cells were seeded into a 384-well plate one day before adding inhibitors. Equal volumes of vehicles or drugs diluted at indicated concentration were added into each well the next day, and the cells were incubated for three days. On the third day, after equilibrating plate and CellTiter-Glo reagent at room temperature for 30 min, reagent was added into each well and incubated for 15 min at room temperature. Luminescence was measured using a Synergy 2 microplate reader. Four biological replicates were performed for each condition. Data analysis was performed with GraphPad Prism (v.9.1.0). […]
(In general: Cellular ATP, detected with luciferase, serves as a proxy for viable cell number.)

Assay [2] deals with GBM39ec cells. Kind of assay: Cell viability (CellTiter-Glo). The assay is classed as cell-based, human. To be noted: Extended Data Fig. 8. The method, then: (§1) Cell viability assay was performed using CellTiter-Glo (Promega, catalgoue no. G8461) as previously described. Briefly, cells were seeded into a 384-well plate one day before adding inhibitors. Equal volumes of vehicles or drugs diluted at indicated concentration were added into each well the next day, and the cells were incubated for three days. On the third day, after equilibrating plate and CellTiter-Glo reagent at room temperature for 30 min, reagent was added into each well and incubated for 15 min at room temperature. Luminescence was measured using a Synergy 2 microplate reader. Four biological replicates were performed for each condition. Data analysis was performed with GraphPad Prism (v.9.1.0).

Assay [3] deals with GBM39HSR cells. Nature of the assay: Cell viability (CellTiter-Glo). As to conditions: Extended Data Fig. 8. The assay is classed as cell-based, human. On the procedure: as §1
The subject of assay [4] is COLO320DM cells. Kind of assay: Cell viability / CTG proliferation (CellTiter-Glo). The assay is classed as cell-based, human. The method, then: as §1
The test system of assay [5] is COLO320HSR cells. Kind of assay: Cell viability / CTG proliferation (CellTiter-Glo). As to conditions: for IC50: Extended Data Fig. 8. The assay is classed as cell-based, human. On the procedure:
as §1

Assay [6] relates to ecDNA-containing tumour cells. Kind of assay: TUNEL and PI-Annexin V staining (apoptosis). The assay is classed as cell-based, human. To be noted: 1 µM CHIR-124, ecDNA-containing vs HSR cells. On the procedure: TUNEL assay (Invitrogen, catalogue no. C10617) was performed to detect DNA fragmentation during apoptosis. COLO320DM, COLO320HSR and SNU16 cells were treated with 1 µM CHIR-124 for indicated times. All cells including floating cells were collected and spun down onto slides using a cytospin (Thermo Scientific Cytospin 4 Centrifuge). Slides were fixed with 4% PFA and permeabilized with 0.25% Triton X-100, followed by labelling of free double strand end with EdUTP by reaction catalysed by TdT enzyme in a humidified chamber at 37 °C for 60 min. Incorporated EdUTP was detected through Click-iT Plus TUNEL reaction according to the manufacturer’s manual at 37 °C for 30 min. Slides were counterstained with DAPI and mounted with ProLong Diamond Antifade.
Cell apoptosis was detected through flow cytometry using a FITC Annexin V Apoptosis Detection Kit (BD Biosciences, catalogue no. 556547). Cells were treated with 1 µM of CHIR-124 for the indicated time, and all the cells including floating cells were collected. After washing with PBS twice and cell number counting, cells were resuspended in 1× binding buffer provided by the kit at a concentration of 1 × 10^6 cells per millilitre. […] After incubation at room temperature for 15 min, all the samples were analysed with BD LSR II flow cytometry (BD Biosciences) within 1 h. Flow cytometry data were analysed through Beckman Coulter Kaluza software (v.2.1).

For assay [7], the system named is γH2AX in COLO320DM and COLO320HSR cells. Nature of the assay: γH2AX IF combined with EdU labelling. To be noted: COLO320DM vs COLO320HSR, especially EdU+ cells. The assay is classed as cell-based, human. On the procedure:
Coverslips were coated with 100 µg ml^−^1 poly-L-lysine overnight or 10 µg ml^−^1 laminin for 1 h at 37 °C before seeding cells. Asynchronized cells were seeded onto slides and subject to different treatment. Where indicated, EdU was added to each well at 10 µg ml^−^1 30 min before collecting samples. IF and dual-IF DNA FISH staining were performed as described before. Briefly, slides were fixed with ice-cold 4% paraformaldehyde (PFA) for 15 min, followed by permeabilization with 0.5% Triton X-100 in PBS for 15 min at room temperature. Samples were blocked with 3% BSA in PBS for 1 h at room temperature before incubation with primary antibody diluted in blocking buffer at 4 °C overnight. Dilution ratio for first antibodies was as follows: γH2Ax, 1:500; pRPA2-S33, 1:1,000; pCHK1S345, 1:250; 53BP1, 1:500; cyclin A, 1:100; pRNAPII S2/S4, 1:1,000. […]
Image analysis and quantification were performed using the open-source software CellProfiler (v.4.2.1). For foci number analysis, DAPI staining, IF staining and DNA FISH channel were analysed through automatic thresholding and segmentation to cell nuclei, pRPA2S33/γH2AX foci and DNA FISH foci respectively. […] For fluorescence intensity measurement, nuclei were called based on DAPI channel through automatic thresholding and segmentation; mean fluorescence intensity was retrieved by measuring mean fluorescence intensity within each nucleus.

Assay [8] has as its system CHK1/CHK2. Kind of assay: CHK1/CHK2 selectivity. The assay is classed as biochemical.
The subject of assay [9] is pCHK1-S345 in HT29 cells. Nature of the assay: AlphaLISA SureFire Ultra p-CHK1 (Ser345) assay in HT29 cells. The assay is classed as cell-based. To be noted: 16 h, read-out: CHK1 cellular potency AlphaLisa (IC50). The method, then:
Compound activity in cells was measured using an AlphaLISA SureFire Ultra p-CHK1 (Ser345) assay (Perkin Elmer, catalogue no. ALSU-PCHK1-A10K). HT29 cells were cultured in McCoy 5 A medium with 10% FBS and 1% penicillin-streptomycin and seeded to 96-well plates (Corning, catalogue no. 3599). Compounds were serially diluted in DMSO over a 10-point dose range with 3-fold dilution, and compound solution was added to each well containing cells. Plates were centrifuged at 1,000 rpm for 30 s. Plates were incubated at 37 °C for 16 h. Supernatant was removed by flicking the plate against a paper towel. Wells were washed once with PBS solution. To each well was added freshly prepared lysis buffer and plates were agitated on a plate shaker at 400 rpm for 30 min. The 96-well cell plates were centrifuged at 1,500 rpm for 1 min. From each well was transferred 10 µl of the lysates to a 384-well Optiplate (Perkin Elmer, catalogue no. 6007290). To each well was added Acceptor Mix (5 µl) and the plates were sealed and wrapped in foil. Plates were agitated on a plate shaker for 2 min, then incubated at room temperature for 1 h. To each well was added Donor Mix (5 µl) and the plates were sealed and wrapped in foil. Plates were agitated on a plate shaker for 2 min, then incubated at room temperature for 1 h. AlphaLisa signal was read on an EnVision multimode plate reader (Perkin Elmer). […]
Background: In Alpha technology, singlet oxygen from a donor bead excites a nearby acceptor bead.

Assay [10] concerns the target T1, Full-length human CHK1 protein (Homo sapiens, UniProt O14757).
T1 construct: purchased Carna Biosciences, Inc. 02-117
T1 sequence (O14757 1-476): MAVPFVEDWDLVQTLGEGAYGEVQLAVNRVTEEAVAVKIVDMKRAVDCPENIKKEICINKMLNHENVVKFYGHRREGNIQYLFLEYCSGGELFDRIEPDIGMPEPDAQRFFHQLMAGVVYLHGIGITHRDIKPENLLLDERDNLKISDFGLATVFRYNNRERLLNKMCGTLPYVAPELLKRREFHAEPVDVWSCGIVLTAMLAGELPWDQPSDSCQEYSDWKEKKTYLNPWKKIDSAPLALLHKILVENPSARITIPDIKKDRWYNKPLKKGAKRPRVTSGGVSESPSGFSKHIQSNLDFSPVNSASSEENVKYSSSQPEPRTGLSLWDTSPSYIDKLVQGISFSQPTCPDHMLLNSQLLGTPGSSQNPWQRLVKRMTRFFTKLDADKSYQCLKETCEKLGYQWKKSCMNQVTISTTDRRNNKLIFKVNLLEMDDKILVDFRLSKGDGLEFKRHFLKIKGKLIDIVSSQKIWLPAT
Nature of the assay: Kinase HTRF biochemical assay (CHK1 enzyme inhibition). As to conditions: HTRF KinEASE, ATP 1 mM; read-out: CHK1 biochemical potency (IC50). On the technique in general: In TR-FRET formats the signal depends on donor and acceptor labels being close together.
Procedure: CHK1 enzyme activity was measured using a homogeneous time resolved fluorescence (HTRF) KinEASE assay (Cisbio, catalogue no. 62ST1PEC). Full-length human CHK1 protein (GenBank accession number NP_001265.1) was obtained from Carna Biosciences, Inc. (catalogue no. 02-117). The enzyme reaction was carried out in assay buffer containing (final concentrations): CHK1 enzyme (0.012 ng µl^−^1), MgCl2 (5 mM) and DTT (1 mM). To determine compound dose response, DMSO stock solutions were serially diluted in a ten-point concentration series in duplicate. Compound solution (50 nl) was added to 384-well assay plates (Greiner, catalogue no. 784075). To each well containing compound solution was added assay buffer solution (5 µl). Plates were centrifuged at 1,000 rpm for 1 min, then incubated at room temperature for 10 min. The reaction was started by addition of substrate buffer (5 µl per well) containing (final concentrations): STK substrate 1-biotin (120 nM) and ATP (1 mM). Assay plates were centrifuged at 1,000 rpm for 1 min, then incubated at room temperature for 60 min. The reaction was stopped by the addition of detection buffer (Cisbio, 10 µl) containing (final concentrations): STK antibody cryptate (0.25 nM) and streptavidin-XL665 (7.5 nM). […] HTRF signal was read on an EnVision multimode plate reader (Cisbio) in HTRF mode. […]

Where [11] appears, read: Extended Data Fig. 8, read-out: IC50 COLO320DM.

SMILES strings stand for the structures. Where two headings read alike, the source gives them in different places.

Regarding `O=c1[nH]c2ccc(Cl)cc2c(N[C@@H]2CN3CCC2CC3)c1-c1nc2ccccc2[nH]1` [CHIR-124], the IC50 in [1] is 150 nM; in [2] it was 581 nM; in [3], 1660 nM; in assay [4] (setting [11]) it was 146 nM; in assay [5], 1120 nM. For the same compound, the “IC50 fold higher in COLO320HSR compared to COLO320DM” value in [5] (Fig. 3d) was “approximately 4 fold”. Also, the “cell apoptosis (TUNEL, PI-Annexin V)” value in assay [6] is “more rapid and higher degree of cell apoptosis”. Further, the “DNA damage (γH2AX IF)” value in assay [7] was “significantly higher DNA damage in COLO320DM compared with COLO320HSR”.

In the case of `N[C@@H]1CCCN(c2c(Br)cnc3[nH]cc(NC(=O)C4CC4)c23)C1` [GDC-0575], in assay [8], the CHK1/CHK2 selectivity stood at 1.5×. In addition, the IC50 is 105 nM in [4] (COLO320DM cells, read-out: CTG proliferation ecDNA+ (IC50)); 167 nM in assay [4] (setting [11]); 588 nM in assay [5]; 122 nM in assay [9]; 12 nM in assay [10].

Source of the values: paper PMC11540844, “Enhancing transcription–replication conflict targets ecDNA-positive cancers” (Nature, 2024).
